The values below come from ChEMBL document CHEMBL3102697, “Controlled-deactivation cannabinergic ligands” (J Med Chem, 2013).

pEC50, pKi: −log10 of the molar value. The source made the active and inactive calls. The calls are words filed in the database; no cut-off is given here.

By pKi is commonly meant −log10 of the Ki, conventionally taken in molar units. A high value points to a low Ki. In general, Emax refers to the greatest response seen or fitted, relative to the assay's reference. The pEC50 is −log10 of the EC50, conventionally taken in molar units.

Data set [1] addresses Cannabinoid receptor 2 (Mus musculus, UniProt P47936). Nature of the data set: Displacement of [3H]CP-55,940 from mouse CB2 receptor expressed in HEK293 cell membranes by scintillation counting analysis. (In a radioligand displacement assay an active substance lowers the binding of a labelled ligand.)
The subject of data set [2] is Rattus norvegicus. The data set is described as follows: Induction of hypothermia in sc dosed Sprague-Dawley rat measured for 6 hrs. The class given is functional, organism-based.
The target in data set [3] is T1, Cannabinoid receptor 1 (Rattus norvegicus, UniProt P20272). The data set is described as follows: Displacement of [3H]CP-55,940 from CB1 receptor in rat brain by scintillation counting analysis. The class given is tissue-based.
T1 sequence (P20272 whole entry): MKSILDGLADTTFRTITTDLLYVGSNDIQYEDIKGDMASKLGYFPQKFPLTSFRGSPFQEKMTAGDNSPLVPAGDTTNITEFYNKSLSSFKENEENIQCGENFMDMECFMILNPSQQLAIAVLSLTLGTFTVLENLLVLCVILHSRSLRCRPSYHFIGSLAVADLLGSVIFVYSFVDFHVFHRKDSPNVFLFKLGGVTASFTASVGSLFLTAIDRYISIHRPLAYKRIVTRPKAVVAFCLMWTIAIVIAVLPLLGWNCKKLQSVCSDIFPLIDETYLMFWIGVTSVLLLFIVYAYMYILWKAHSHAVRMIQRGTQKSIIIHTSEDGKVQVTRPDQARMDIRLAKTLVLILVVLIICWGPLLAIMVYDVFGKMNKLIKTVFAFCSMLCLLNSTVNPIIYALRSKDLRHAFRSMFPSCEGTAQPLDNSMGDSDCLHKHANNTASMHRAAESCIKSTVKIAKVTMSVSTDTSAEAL
The target in data set [4] is Cannabinoid receptor 1 (Rattus norvegicus) (UniProt P20272). The data set is described as follows: Agonist activity at rat CB1 receptor expressed in HEK293 cells assessed as inhibition of forskolin-stimulated cAMP accumulation up to 5 uM after 30 mins. Format: functional, cell-based. For orientation: cAMP levels reflect the balance of adenylyl cyclase and phosphodiesterase activity.
Cannabinoid receptor 1 (Rattus norvegicus), sequence (P20272 whole entry): as above

Data set [5] addresses Cannabinoid receptor 2 (Homo sapiens, UniProt P34972). Nature of the data set: Displacement of [3H]CP-55,940 from human CB2 receptor expressed in HEK293 cell membranes by scintillation counting analysis.
In data set [6] the test system is Rattus norvegicus. The data set is described as follows: Induction of hypothermia in Sprague-Dawley rat at 0.1 to 3 mg/kg, sc measured for 6 hrs. The class given is functional, organism-based.
For data set [7], the system named is Plasma. The data set is described as follows: Half life in mouse plasma at 200 uM by HPLC analysis. The class given is ADME, cell-free.
The subject of data set [8] is Plasma. The data set is described as follows: Half life in rat plasma at 200 uM by HPLC analysis. Format: ADME, cell-free.
Data set [9] has as its system Rattus norvegicus. The data set is described as follows: Induction of hypothermia in Sprague-Dawley rat at 3 mg/kg, sc after 6 hrs. Format: functional, organism-based. On the set-up: dose 3 mg/kg.
Data set [10] relates to Rattus norvegicus. Nature of the data set: Induction of hypothermia in Sprague-Dawley rat at 3 mg/kg, sc after 90 to 120 mins. On the set-up: dose 3 mg/kg. Format: functional, organism-based.
Data set [11] addresses Cannabinoid receptor 1 (Rattus norvegicus) (UniProt P20272). Nature of the data set: Agonist activity at rat CB1 receptor expressed in HEK293 cells assessed as inhibition of forskolin-stimulated cAMP accumulation at 500 nM after 30 mins relative to CP-55,940. Format: functional, cell-based.
Data set [12] deals with T1, Cannabinoid receptor 1. Nature of the data set: Agonist activity at rat CB1 receptor expressed in HEK293 cells assessed as inhibition of forskolin-stimulated cAMP accumulation after 30 mins. Format: functional, cell-based.
Data set [13] deals with Rattus norvegicus. The data set is described as follows: Induction of hypothermia in Sprague-Dawley rat at 3 mg/kg, sc up to 300 mins. The class given is functional, organism-based. Also on record: dose 3 mg/kg.
Data set [14] deals with Rattus norvegicus. The data set is described as follows: Induction of hypothermia in Sprague-Dawley rat at 1 to 3 mg/kg, sc measured for 6 hrs. Format: functional. Conditions: dose mg/kg 1-3; route subcutaneous.
In data set [15] the test system is Rattus norvegicus. The data set is described as follows: Induction of hypothermia in Sprague-Dawley rat at 1 mg/kg, sc up to 300 mins. The class given is functional, organism-based. On the set-up: dose 1 mg/kg.
Data set [16] deals with Rattus norvegicus. The data set is described as follows: Induction of hypothermia in Sprague-Dawley rat at 1 mg/kg, sc after 90 to 120 mins. Also on record: dose 1 mg/kg. The class given is functional, organism-based.
Data set [17] has as its system Rattus norvegicus. The data set is described as follows: Induction of hypothermia in Sprague-Dawley rat at 0.3 mg/kg, sc after 4 hrs. Format: functional, organism-based. Also on record: dose 0.3 mg/kg.
A further data set concerns Mus musculus. The data set is described as follows: Analgesic activity in CD-1 mouse assessed as tail-flick withdrawal latency at 0.3 to 1 mg/kg, ip. The class given is functional, organism-based.
Data set [18] deals with Rattus norvegicus. Nature of the data set: Induction of hypothermia in Sprague-Dawley rat at 0.3 mg/kg, sc measured at 12 hrs. On the set-up: dose 0.3 mg/kg. The class given is functional, organism-based.
Data set [19] has as its system Rattus norvegicus. Nature of the data set: Induction of hypothermia in Sprague-Dawley rat at 0.3 mg/kg, sc after 2 hrs. Format: functional. To be noted: route subcutaneous.
The test system of data set [20] is Rattus norvegicus. Nature of the data set: Induction of hypothermia in Sprague-Dawley rat at 0.3 mg/kg, sc up to 6 hrs. Format: functional, organism-based. Also on record: dose 0.3 mg/kg.
Data set [21] has as its system Rattus norvegicus. Nature of the data set: Induction of hypothermia in Sprague-Dawley rat at 3 mg/kg, sc after 60 mins. Format: functional, organism-based. On the set-up: dose 3 mg/kg.

Cannabinoid receptor 2 (Homo sapiens, UniProt P34972), sequence (P34972 whole entry): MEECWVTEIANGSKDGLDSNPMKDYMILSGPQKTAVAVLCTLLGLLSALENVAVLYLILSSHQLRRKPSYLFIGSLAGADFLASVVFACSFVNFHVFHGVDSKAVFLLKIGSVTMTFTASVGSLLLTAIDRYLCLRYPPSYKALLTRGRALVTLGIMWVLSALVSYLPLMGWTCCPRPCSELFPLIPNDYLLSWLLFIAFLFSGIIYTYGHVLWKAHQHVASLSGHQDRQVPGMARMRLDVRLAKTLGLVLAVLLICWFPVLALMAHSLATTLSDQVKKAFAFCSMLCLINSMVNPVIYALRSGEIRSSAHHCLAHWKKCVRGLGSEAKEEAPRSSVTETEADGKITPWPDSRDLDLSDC
Cannabinoid receptor 2 (Mus musculus, UniProt P47936), sequence (P47936 whole entry): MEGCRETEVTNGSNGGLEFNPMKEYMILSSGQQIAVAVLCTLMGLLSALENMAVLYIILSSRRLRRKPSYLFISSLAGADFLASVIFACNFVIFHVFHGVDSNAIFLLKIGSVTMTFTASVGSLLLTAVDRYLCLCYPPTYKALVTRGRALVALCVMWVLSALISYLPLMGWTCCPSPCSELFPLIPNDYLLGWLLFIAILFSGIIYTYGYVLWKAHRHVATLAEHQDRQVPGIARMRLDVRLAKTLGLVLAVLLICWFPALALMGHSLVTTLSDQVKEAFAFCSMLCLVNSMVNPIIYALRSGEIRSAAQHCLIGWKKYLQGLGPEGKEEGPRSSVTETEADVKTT

For the compound `CC1=CC[C@@H]2[C@@H](C1)c1c(O)cc(C3(C(=O)O)CCC3)cc1OC2(C)C`, the pKi on Cannabinoid receptor 2 [1] and at Cannabinoid receptor 1 [3] was below 5.00 throughout. Moreover, the result in the data set on Rattus norvegicus [2] was inactive.
For the compound `CC1=CC[C@@H]2[C@@H](C1)c1c(O)cc([C@H](C)C(=O)O)cc1OC2(C)C`, the pKi on Cannabinoid receptor 2 [1] and at Cannabinoid receptor 1 [3] was below 5.00 each time. In addition, in the data set with Rattus norvegicus [2], the outcome was inactive.
Consider `CC1=CC[C@@H]2[C@@H](C1)c1c(O)cc(CC(=O)O)cc1OC2(C)C`, for which the pKi on Cannabinoid receptor 2 [1] and on Cannabinoid receptor 1 [3] was below 5.00 throughout. Moreover, the result with Rattus norvegicus [2] was inactive.
Consider `CCCCOC(=O)Cc1cc(O)c2c(c1)OC(C)(C)[C@@H]1CC=C(C)C[C@@H]21`, for which the inhibition result in data set [4] is “inactive”. Moreover, the pKi was 7.39 at Cannabinoid receptor 2 [1], 7.29 at Cannabinoid receptor 2 [5] and 7.57 on Cannabinoid receptor 1 [3]. Besides, the result with Rattus norvegicus [6] and in the data set with Rattus norvegicus [9] was inactive. Moreover, the results for the t1/2 in the data set with Plasma [7] and in the data set with Plasma [8] were 0.7 min and below 0.5 min, respectively.
Turning to `CCCCOC(=O)[C@@H](C)c1cc(O)c2c(c1)OC(C)(C)[C@@H]1CC=C(C)C[C@@H]21`, the pKi was 8.21 on Cannabinoid receptor 2 [1], 8.20 on Cannabinoid receptor 2 [5] and 9.22 on Cannabinoid receptor 1 [3]. Also, the outcome in the data set on Rattus norvegicus [10] was Active. The t1/2 is on record as 4 min with Plasma [7] and 4.3 min with Plasma [8]. For the same compound, the Emax in data set [11] worked out at 63%. In addition, in the data set on Rattus norvegicus [2], the Activity result is “Dose-dependent effect”. The pEC50 at Cannabinoid receptor 1 [12] is 8.38. Also, the result with Rattus norvegicus [13] was inactive. This compound also had a T in the data set on Rattus norvegicus [14] of 3.6 °C.
On to `CC1=CC[C@@H]2[C@@H](C1)c1c(O)cc(C(C)(C)C(=O)O)cc1OC2(C)C`, for which the pKi on Cannabinoid receptor 2 [1] and on Cannabinoid receptor 1 [3] was below 5.00 in each case. Also, in the data set with Rattus norvegicus [2], the outcome was inactive.
In the case of `CCCCOC(=O)C1(c2cc(O)c3c(c2)OC(C)(C)[C@@H]2CC=C(C)C[C@@H]32)CCC1`, the pKi on Cannabinoid receptor 2 [1] and on Cannabinoid receptor 2 [5] was 8.52 each time. In addition, the result with Rattus norvegicus [15] was inactive. Further, the t1/2 is given as 36.3 min in the data set with Plasma [7] and 263 min with Plasma [8]. Moreover, the Emax in data set [11] is 90%. Besides, in the data set on Rattus norvegicus [2], the Activity result is “Dose-dependent effect”. The pEC50 at Cannabinoid receptor 1 [12] is 9.40. In the data set with Rattus norvegicus [16], the result was Active. The T in the data set on Rattus norvegicus [14] was determined as 3.6 °C.
For the compound `CCCCCCC(C)(C)c1cc(O)c2c(c1)OC(C)(C)[C@@H]1CC=C(C)C[C@@H]21`, the result in the data set on Rattus norvegicus [6], in the data set on Rattus norvegicus [17], with Mus musculus and in the data set on Rattus norvegicus [18] was Active.
Turning to `CC1=CC[C@@H]2[C@@H](C1)c1c(O)cc([C@@H](C)C(=O)O)cc1OC2(C)C`, the pKi on Cannabinoid receptor 2 [1] and on Cannabinoid receptor 1 [3] was below 5.00 in each case. In the data set on Rattus norvegicus [2], the result was inactive.
On to `CCCCOC(=O)[C@H](C)c1cc(O)c2c(c1)OC(C)(C)[C@@H]1CC=C(C)C[C@@H]21`, for which the inhibition result in data set [4] was “inactive”. In addition, the pKi is 8.35 at Cannabinoid receptor 2 [1], 8.43 on Cannabinoid receptor 2 [5] and 8.80 at Cannabinoid receptor 1 [3]. The outcome in the data set with Rattus norvegicus [6] and with Rattus norvegicus [9] was inactive. The t1/2 with Plasma [7] was found to be 5.9 min; with Plasma [8] it was 10.5 min.
Take `CCCCOC(=O)C(C)(C)c1cc(O)c2c(c1)OC(C)(C)[C@@H]1CC=C(C)C[C@@H]21`: the values for the pKi on Cannabinoid receptor 2 [1], at Cannabinoid receptor 2 [5] and at Cannabinoid receptor 1 [3] were 8.68, 8.77 and 9.52, respectively. For the same compound, the T with Rattus norvegicus [19] is 2 °C; with Rattus norvegicus [14], 3.6 °C. The t1/2 in the data set with Plasma [7] is given as 12.4 min; in the data set with Plasma [8] it was 120 min. The maximum response (Emax) in data set [11] was determined as 92%. Also, in the data set on Rattus norvegicus [2], the Activity entry was “Dose-dependent effect”. For the same compound, the result in the data set with Mus musculus, with Rattus norvegicus [20] and in the data set on Rattus norvegicus [21] was Active. Further, on Cannabinoid receptor 1 [12], the pEC50 is 9.30. Further, the outcome with Rattus norvegicus [13] was inactive.
